Assay results reported in patent publication US20170165317A1, “METHOD FOR MITIGATING OR ALLEVIATING SYNAPTIC AND COGNITIVE DEFICITS” (Trustees of Dartmouth College, priority 2013, published 2017).

What was measured:
APP/PS1 mice = assay: Auditory-cued fear conditioning (hippocampal-independent) after i.c.v. infusion; format: in vivo, mouse; conditions: wild-type vs APP/PS1 mice, with or without VO-OHpic
Protocol: APP/PS1 and wild-type mice were anesthetized with isofluorane, and i.c.v. delivery cannulas (brain alzet kit III) were implanted with a stereotaxic frame (KOPF Instruments) at the following coordinates according to the bregma: AP, −0.5 mm; ML, 1 mm; and DV, −2.2 mm. Osmotic minipumps (Alzet) were filled with artificial cerebrospinal fluid (aCSF) with or without PTEN inhibitor VO-OHpic (2.5 μM) and equilibrated in 0.9% NaCl at 37° C. for 48 hours. They were attached to the i.c.v. cannula tubing and subcutaneously implanted at the back. After 21 days, behavioral testing was started as described herein. […]
Fear conditioning. […] The animals' behavior was scored by an observer blind to the treatment condition. Using a time-sampling procedure every 2 seconds, each mouse was scored blindly as either freezing or active at the instant the sample was taken. […]
It was posited that if early Aβ-induced cognitive impairment results from a general synaptic bias toward LTD events (Selkoe (2002) Science 298:789-791), dampening this form of synaptic plasticity might prevent cognitive decay. Therefore, it was determined whether in vivo inhibition of PTEN, a lipid phosphatase that is involved in LTD (Jurado, et al. (2010) EMBO J. 29:2827-2840), would rescue cognitive deficits in APP/PS1 mice. […]

Aβ42 = target: T1, Aβ42 (Homo sapiens, UniProt P05067); assay: Thioflavin-T fluorescence assay of Aβ42 aggregation; format: biochemical; conditions: 50 nM VO-OHpic or 15 nM bPV(HOpic), 37° C.
T1 construct: Lyophilized Aβ42 peptide was purchased from Keck Facility at Yale University; purchased Keck Facility at Yale University; host or cells: synthetic peptide
T1 sequence (P05067 672-713): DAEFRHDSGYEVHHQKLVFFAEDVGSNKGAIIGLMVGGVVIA
Protocol: Freshly prepared Aβ42 was prepared as described for protofibrillar Aβ42. The Thioflavin-T (ThT) assay was carried out at 37° C., within a dark chamber in a 96-well plate. Each well contained 100 ng/μL of Aβ42, 20 μM ThT and 50 nM VO-OHpic or 15 nM bPV(HOpic). Fluorescence (λex=450 nm; λem=485 nm) was followed over time in a FLUOSTAR OPTIMA (BMG LabTech) fluorescence spectrophotometer. Samples were run in triplicates. […] Thus, the observed rescue of basal synaptic transmission, LTP and cognition, with VO-OHpic was not likely due to an altered aggregation state of Aβ upon PTEN inhibition.

**Q.** For `O=C(O)c1ncccc1O.O=C(O)c1ncccc1O.[O]=[V][O-]` [VO-OHpic], which “auditory-cued fear conditioning (percentage freezing to the tone)” value (APP/PS1 mice) is on record?
**A.** did not show significant difference

**Q.** And the “Aβ42 aggregation (ThT fluorescence)” value (Aβ42)?
**A.** does not alter Aβ42 aggregation
